Test results reported in BigSolDB 2.1.

Nc1cc(-c2ccncc2)c[nH]c1=O
solubility (mole fraction)
Conditions | 278.15 K | 283.15 K | 288.15 K | 293.15 K | 298.15 K | 303.15 K | 308.15 K | 313.15 K | 318.15 K | 323.15 K
in DMF | 7.24e-05 | 8.63e-05 | 0.000102 | 0.000118 | 0.000135 | 0.000154 | 0.000177 | 0.000203 | 0.000229 | 0.00026
in ethanol | 2.65e-05 | 3.18e-05 | 3.71e-05 | 4.41e-05 | 5.07e-05 | 5.84e-05 | 6.7e-05 | 7.54e-05 | 8.47e-05 | 9.67e-05
in ethylene glycol | 1.95e-05 | 2.33e-05 | 2.74e-05 | 3.26e-05 | 3.83e-05 | 4.35e-05 | 4.95e-05 | 5.62e-05 | 6.36e-05 | 7.18e-05
in methanol | 5.18e-05 | 6.11e-05 | 7.22e-05 | 8.44e-05 | 9.72e-05 | 0.000111 | 0.000126 | 0.000141 | 0.00016 | 0.00018
in water | 6.85e-07 | 8.07e-07 | 9.66e-07 | 1.13e-06 | 1.33e-06 | 1.53e-06 | 1.77e-06 | 2.02e-06 | 2.3e-06 | 2.63e-06
